Test results as given in publication PMC12019385 (Scientific Reports, 2025).

What was measured:
[1] = biological target: V-ATPase A (V-type proton ATPase catalytic subunit A) (Caenorhabditis elegans, UniProt Q9XW92); assay: microscale thermophoresis; format: binding
[2] = biological target: Hsp70 A (heat shock 70 kDa protein A) (Caenorhabditis elegans, UniProt P09446); assay: microscale thermophoresis; format: binding
Chain of Hsp70 A (heat shock 70 kDa protein A) (P09446 whole entry): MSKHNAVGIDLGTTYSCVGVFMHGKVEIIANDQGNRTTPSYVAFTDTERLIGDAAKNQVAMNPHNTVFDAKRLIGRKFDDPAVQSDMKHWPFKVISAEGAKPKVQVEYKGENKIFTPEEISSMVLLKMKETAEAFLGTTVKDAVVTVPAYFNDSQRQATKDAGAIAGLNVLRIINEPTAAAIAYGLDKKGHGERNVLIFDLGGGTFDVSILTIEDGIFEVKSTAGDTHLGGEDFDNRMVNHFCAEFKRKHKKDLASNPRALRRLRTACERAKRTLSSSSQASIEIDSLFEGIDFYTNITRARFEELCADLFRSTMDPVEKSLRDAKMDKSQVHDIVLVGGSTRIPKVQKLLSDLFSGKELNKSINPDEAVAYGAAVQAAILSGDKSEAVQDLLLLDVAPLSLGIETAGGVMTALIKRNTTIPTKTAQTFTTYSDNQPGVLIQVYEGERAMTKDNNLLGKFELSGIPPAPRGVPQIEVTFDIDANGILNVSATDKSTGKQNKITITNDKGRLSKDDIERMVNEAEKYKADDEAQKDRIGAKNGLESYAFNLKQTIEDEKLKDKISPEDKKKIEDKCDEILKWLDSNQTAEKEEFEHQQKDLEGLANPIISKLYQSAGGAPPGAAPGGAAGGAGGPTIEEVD

Chain of V-ATPase A (V-type proton ATPase catalytic subunit A) (Q9XW92 whole entry): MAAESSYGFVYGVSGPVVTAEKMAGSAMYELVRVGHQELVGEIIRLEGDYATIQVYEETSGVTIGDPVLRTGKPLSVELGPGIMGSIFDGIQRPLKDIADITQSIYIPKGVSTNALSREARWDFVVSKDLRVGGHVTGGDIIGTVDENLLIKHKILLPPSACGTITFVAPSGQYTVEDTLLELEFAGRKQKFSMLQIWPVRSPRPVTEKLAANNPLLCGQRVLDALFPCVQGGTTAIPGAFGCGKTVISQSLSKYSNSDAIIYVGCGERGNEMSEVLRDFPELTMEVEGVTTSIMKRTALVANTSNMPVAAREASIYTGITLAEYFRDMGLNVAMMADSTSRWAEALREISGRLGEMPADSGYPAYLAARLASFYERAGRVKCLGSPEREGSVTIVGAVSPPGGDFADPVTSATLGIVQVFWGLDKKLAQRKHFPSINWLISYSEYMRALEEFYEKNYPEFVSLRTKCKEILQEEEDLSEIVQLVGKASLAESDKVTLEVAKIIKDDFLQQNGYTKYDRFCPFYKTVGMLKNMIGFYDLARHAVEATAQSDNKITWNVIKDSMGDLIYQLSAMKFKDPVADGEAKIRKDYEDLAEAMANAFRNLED

- Kd [1]: 302 ± 43.9 nM
- Kd [2]: 117 ± 16.3 nM
Compound: CCCCCCCCCC(C)=O [2-undecanone]
